Measured values reported in US20100267054A1, “Measuring The Activity Of Proteases” (priority 2007, published 2010).

Experiments:
[1] = test system: protease activity of human serum; assay: Effect of E64 and CA-074 on the protease activities of human sera with and without treatment by immobilised papain (AFC method); assay type: biochemical; conditions: two normal human sera; for protease activity of sera after pre-treatment with immobilised papain, effect of inhibitor: pre-treated with immobilised papain; for small proteolytic activity of sera without pre-treatment, effect of inhibitor: without pre-treatment with immobilised papain
Experimental: FIG. 7 Effect of the inhibitors E64 and CA074 on the activity of purified cathepsin B or the protease activities of sera with and without treatment by immobilised papain. The tests were carried out with the AFC method.
(§1) The measurement of the fluorescence was done with 96-well microtiter plates by means of a fluorescence reader (for measurements with AMC: excitation at 355 nm, fluorescence at 450 nm) (for measurements with AFC: excitation at 400 nm, fluorescence at 508 nm).
(§2) In the AFC-method the assay run for the measurement of the activity was carried out in test samples at 37° C. The content of the test sample was transferred into the microtiter plate just before the measurement of the fluorescence.
The enzymatic activities of cathepsin B in small concentrations were measured of two “normal” human sera with and without pre-treatment with immobilised papain (FIG. 7).

cathepsin B = target: T1, cathepsin B (Bos taurus, UniProt P07688); assay: Inhibition of cathepsin B by cystatin A; assay type: biochemical, bovine; conditions: 700 nM cystatin A; 5 and 10 ng cathepsin B per assay run
T1 construct: cathepsin B (purified from the bovine spleen, 10 units/ml) was used in the test; from tissue; host or cells: bovine spleen
Description: a1. Introduction: The activity measurement of cathepsin B is based on the cleavage of a dipeptide substrate • Z-Arg-Arg-fluorophore→Z-Arg-Arg+fluorophore (Z=protecting group, Arg=basic amino acid arginine)
as §1, §2
The inhibition of cathepsin B by the known inhibitor cystatin A was tested in vitro with two different cathepsin B concentrations.

Row | Molecule | protease activity of sera after pre-treatment with immobilised papain, effect of inhibitor [1] | small proteolytic activity of sera without pre-treatment, effect of inhibitor [1] | inhibition of cathepsin B (cathepsin B) [%]
1 | CCCNC(=O)[C@H]1O[C@@H]1C(=O)N[C@H](C(=O)N1CCC[C@H]1C(=O)O)[C@@H](C)CC [CA-074] | reduced this activity to the value which was measured in the samples not pre-treated | inhibited neither | 
2 | CC(C)C[C@H](NC(=O)[C@H]1O[C@@H]1C(=O)O)C(=O)NCCCCN=C(N)N [E64] | reduced this activity to the value which was measured in the samples not pre-treated | inhibited neither | 
3 | cystatin A: known protein inhibitor of cathepsin B (protein, UniProt P01040 1-98, looked up) Cystatin-A: MIPGGLSEAKPATPEIQEIVDKVKPQLEEKTNETYGKLEAVQYKTQVVAGTNYYIKVRAGDNKYMHLKVFKSLPGQNEDLVLTGYQVDKNKDDELTGF |  |  | > 95
